Test system: Candida albicans
Experiment: bioassay for antifungal activity against Candida albicans
Assay type: cell-based
Conditions: for Activity: Table 5, products of S. noursei nysC mutants, graded against nystatin of wild type (normal)
Method: Preliminary analysis of the compounds produced by the S. noursei ERD44 and ERD48 was carried out. It was shown that a heptaenic compound produced by the ERD44 mutant has high antifungal activity against Candida albicans, an organism used in tests for antifungal activity. At this point it is not possible to accurately assay the activity of this compound (tentatively named S44), because it is not yet properly purified, and its exact concentration is difficult to estimate. […] This probably reflects the different states of modifications of the macrolactone ring by i.e. glycosylation at C19, hydroxylation at C10, or oxidation of the methyl group at C16. This could have been expected, since reduction of the macrolactone ring size most probably leads to the lower affinity of the modifying enzymes towards the new substrate.
Antifungal activity of the S48 mixture was tested, and found to constitute approx. 10% of nystatin activity. It seems probable that only one of the compounds in the S48 mixture produced by ERD48, which is fully decorated by the ring-modifying enzymes, is responsible for the antifungal activity detected. Thus, relative antifungal activity of this compound is impossible to assess prior to its purification Some of the […] antibiotics are known to have antibacterial, as well as antifungal activity (Ciftci, et al., J. Antibiot, v. 37: 876–884, 1984). It is thus possible that hexaenic compounds produced by the ERD48 mutant can be used for production of antibacterial agents The changes in the NysC protein leading to production of new polyene compounds in ERD44 and ERD48 mutants, along with the predicted structures of their macrolactone rings are presented in FIG. 5.
The recombinant S.noursei strain selected after this procedure was designated NPR1.1 The S. noursei NPR1.1 recombinant strain was shown by Southern blot analysis to contain the desired deletion in the DH8-coding sequence of nysC. […] The relative mobility of these compounds differed from nystatin, and no UV spectra characteristic for nystatin could be detected in the extracts. […] However, the NPR1 mutant can be potentially useful for further manipulations with the nystatin PKS.

CC1/C=C/C=C/C=C/C=C/C=C/C=C/C=C/C(O)CC2OC(O)(CC(O)CCCC(O)CC(O)CC(O)CC(=O)OC(C)[C@H](C)C1O)CC(O)C2C (stereo partly shown) [S44]
Activity: high | antifungal activity against Candida albicans (result in words, unpurified compound or culture extracts): high | antifungal activity compared to nystatin (rough estimates based on UV absorbance, compound not properly purified, concentration difficult to estimate): 4–5 times

C[C@@H]1[C@H](O)[C@@H](C)/C=C/C=C/CC/C=C/C=C/C=C/C=C/C(O[C@H]2O[C@H](C)[C@@H](O)[C@H](N)[C@@H]2O)CC2O[C@](O)(CC(O)C(O)CCC(O)CC(O)CC(O)CC(=O)O[C@H]1C)CC(O)C2C(=O)O (stereo partly shown) [nystatin]
Activity: normal
